Columns and labels:
[1] = Quantum efficiency of singlet oxygen generation in air-saturated solution; type: physicochemical
Excerpt: (§1) The ability of the dyes of this invention to function as a cancer-treating agent is in part a reflection of the ability of the dye to generate singlet oxygen in air-saturated solution. (As used herein, "air-saturated solution" means a solution of dye exposed to the atmosphere.) In studying a variety of chalcogenopyrylium dyes, only those dyes containing a selenium or tellurium atom show any appreciable generation of singlet oxygen upon irradiation. Fortuitously, selenopyrylium and telluropyrylium dyes have absorption maxima that are shifted to the red relative to their pyrylium and thiopyrylium analogues. That is, not only are these dyes effective in killing cancer cells because of their high quantum efficiency, but also they generally operate at the most preferred wavelengths, namely those of 700 nm or longer. Table III contains examples of chalcogenopyrylium dyes, their quantum efficiencies for singlet oxygen generation, and their absorption maxima. (In this Table, Ph=Phenyl, Me=Methyl, and t-Bu=tertiary butyl.)

[2] = Absorption maxima (λmax) of chalcogenopyrylium dyes; type: physicochemical
Excerpt: as §1

RT-1 glioma cells = assay: Survival study of rats implanted with RT-1 glioma cells; type: in vivo, rat; details: for Mean Survival Time: 2.5 μmol femoral artery
Experimental: A survival study was conducted using Dye 1 with 400 g rats implanted with RT-1 glioma cells at day 0 and treated with 2.5 μmol of dye delivered by femoral artery injection on day 12. The treated animals were irradiated one hour post injection using a quartz fiber optic with a diffusion tip with the dye laser described earlier as the light source. Total irradiation energy was 50 J cm^-2 at 785 nm. Three control groups were used: untreated animals, animals treated with dye only, and animals treated with light only. [The number of rats per group were: 10 for laser and dye treatment, 6 for control (no treatment), 14 for dye only and 6 for laser only.] Mean survival time data are compiled in Table VIII.

[3] = Distribution of Dye 1 in organ tissues of glioma (RT-1) bearing rats; type: in vivo, rat
Experimental: Dye 1 of Table 1 was delivered to glioma sites in rat brains, such sites having been achieved by implanting RT-1 rat glioma cancer cells into the brains of twenty-four 400 g rats. Stock solutions of Dye 1 at 1 mM concentration were prepared by dissolving the dye in a minimal amount of 95% ethanol and diluting with phosphate buffered saline to 1 mM. RT-1 glioma cells were injected into the cortex of the rats at day 0. Treatment with the dye was done at day 12. A quantity of the stock solution sufficient to deliver 1.5 mg (2.5 μmol) of Dye 1 per rat (approximately2 mL) was delivered by femoral artery or carotid artery injection. The animals were sacrificed at the indicated times, the indicated tissues were removed, and frozen until the amount of dye was quantified. The dye content of the indicated tissues was examined spectroscopically by homogenizing the tissues, doing a lipid extraction of the homogenate, and measuring the optical density of the extract at a constant volume at the wavelength of the dye. Alternatively, a tritium labeled sample of Dye 1 was employed in the injection and the tissue homogenate was placed directly in a scintillation vial. The dye content was then measured by tritium count. […] (The values listed at times of 0.25 and 1.0 h after injection are comparative examples only, since there is either too high a concentration present in the brain, or too little in the tumor.)

[4] = Distribution of Dye 5 in organ tissues of rats bearing an implanted mammarian tumor; type: in vivo, rat; details: peritoneum, prep L, optical density
[5] = carotid artery, 0.33 h, prep H, tritium counts
[6] = femoral artery, 0.25 h, prep D, tritium counts
[7] = femoral artery, 0.50 h, prep D, tritium counts
[8] = femoral artery, 1.0 h, prep (L), optical density (B)
[9] = femoral artery, 1.0 h, prep D, tritium counts

## CC(C)(C)C1=CC(=Cc2cc(CCCCO)[te+]c(CCCCO)c2)C=C(C(C)(C)C)[Se]1 [Dye 18]
[1]; estimated
  Quantum efficiency of singlet oxygen generation Φ(1O2): ≥ 0.005
[2]; MeOH
  Absorption maximum λmax: 690 nm

## CC(=C1C=C(c2ccccc2)[Te]C(c2ccccc2)=C1)c1cc(-c2ccccc2)[te+]c(-c2ccccc2)c1 [Dye 11]
[1]; air-saturated solution
  Quantum efficiency of singlet oxygen generation Φ(1O2): 0.01
[2]; CH2Cl2
  Absorption maximum λmax: 843 nm

## CC(C)(C)C1=CC(=C(C#N)C=Cc2cc(C(C)(C)C)[te+]c(C(C)(C)C)c2)C=C(C(C)(C)C)[Te]1 [Dye 15]
[1]; air-saturated solution
  Quantum efficiency of singlet oxygen generation Φ(1O2): 0.08
[2]; MeOH
  Absorption maximum λmax: 790 nm

## CC(C)(C)C1=CC(=CC=Cc2cc(C(C)(C)C)[o+]c(C(C)(C)C)c2)C=C(C(C)(C)C)S1.F[P-](F)(F)(F)(F)F [C.E. 2, 2,6-Di-t-butyl-4-[3-(2,6-di-t-butyl-4H-thiopyran-4-ylidene)-1-propen-1-yl]pyrylium hexafluorophosphate, reference compound]
[1]; air-saturated solution
  Quantum efficiency of singlet oxygen generation Φ(1O2): ≤ 0.001
[2]; H2O
  Absorption maximum λmax: 630 nm

## CC(C=Cc1cc(C(C)(C)C)[te+]c(C(C)(C)C)c1)=C1C=C(C(C)(C)C)[Se]C(C(C)(C)C)=C1 [Dye 6]
[1]; air-saturated solution
  Quantum efficiency of singlet oxygen generation Φ(1O2): 0.01
[2]; CH2Cl2
  Absorption maximum λmax: 803 nm

## C(=C1C=C(c2ccccc2)[Te]C(c2ccccc2)=C1)c1cc(-c2ccccc2)[te+]c(-c2ccccc2)c1 [Dye 10]
[1]; air-saturated solution
  Quantum efficiency of singlet oxygen generation Φ(1O2): 0.08
[2]; MeOH
  Absorption maximum λmax: 760 nm

## CC(C)(C)C1=CC(=CC=Cc2cc(C(C)(C)C)[s+]c(C(C)(C)C)c2)C=C(C(C)(C)C)[Te]1 [Dye 3]
[1]; air-saturated solution
  Quantum efficiency of singlet oxygen generation Φ(1O2): 0.07
[2]; H2O
  Absorption maximum λmax: 745 nm

## CC(=CC(C)=C1C=C(C(C)(C)C)[Se]C(C(C)(C)C)=C1)c1cc(C(C)(C)C)[se+]c(C(C)(C)C)c1 [Dye 7]
[1]; air-saturated solution
  Quantum efficiency of singlet oxygen generation Φ(1O2): 0.005
[2]; MeOH
  Absorption maximum λmax: 790 nm

## CC(=C1C=C(C(C)(C)C)[Te]C(C(C)(C)C)=C1)c1cc(C(C)(C)C)[te+]c(C(C)(C)C)c1 [Dye 13]
[1]; air-saturated solution
  Quantum efficiency of singlet oxygen generation Φ(1O2): 0.005
[2]; H2O
  Absorption maximum λmax: 790 nm

## CC(C)(C)C1=CC(=CC=Cc2cc(C(C)(C)C)[s+]c(C(C)(C)C)c2)C=C(C(C)(C)C)[Se]1 [Dye 8]
[1]; air-saturated solution
  Quantum efficiency of singlet oxygen generation Φ(1O2): 0.008
[2]; H2O
  Absorption maximum λmax: 700 nm

## CC(C)(C)C1=CC(=CC=Cc2cc(C(C)(C)C)[s+]c(C(C)(C)C)c2)C=C(C(C)(C)C)S1.F[P-](F)(F)(F)(F)F [C.E. 1, 2,6-Di-t-butyl-4-[3-(2,6-di-t-butyl-4H-thiopyran-4-ylidene)-1-propen-1-yl]thiopyrylium hexafluorophosphate, reference compound]
[1]; air-saturated solution
  Quantum efficiency of singlet oxygen generation Φ(1O2): ≤ 0.001
[2]; H2O
  Absorption maximum λmax: 660 nm

## CC(C)(C)C1=CC(=CC=Cc2cc(C(C)(C)C)[se+]c(C(C)(C)C)c2)C=C(C(C)(C)C)[Se]1 [Dye 2]
[1]; air-saturated solution
  Quantum efficiency of singlet oxygen generation Φ(1O2): 0.014
[2]; H2O
  Absorption maximum λmax: 730 nm

## CC(C)(C)C1=CC(=CC=Cc2cc(C(C)(C)C)[se+]c(C(C)(C)C)c2)C=C(C(C)(C)C)[Te]1.[Cl-] [Dye 1, 2,6-Di-t-butyl-4-[3-(2,6-di-t-butyl-4H-telluropyran-4-ylidene)-1-propen-1-yl]selenopyrylium chloride]
RT-1 glioma cells; Dye 1 and light
  survival relative to animals in the control groups: prolonged survival
RT-1 glioma cells; Dye Only, day ≥15
  Proportion of Animals Surviving: 0.50
RT-1 glioma cells; Dye Only, day ≥19
  Proportion of Animals Surviving: 0.43
RT-1 glioma cells; Dye Only, day ≥22
  Proportion of Animals Surviving: 0.43
RT-1 glioma cells; Dye Only, day ≥26
  Proportion of Animals Surviving: 0.43
RT-1 glioma cells; Dye Only, day ≥33
  Proportion of Animals Surviving: 0.43
RT-1 glioma cells; Dye Only, day ≥40
  Proportion of Animals Surviving: 0.43
RT-1 glioma cells; Dye Only, day ≥47
  Proportion of Animals Surviving: 0.00
RT-1 glioma cells; Dye Only
  Mean Survival Time: 27.9 days
RT-1 glioma cells; Laser + Dye, day ≥15
  Proportion of Animals Surviving: 0.70
RT-1 glioma cells; Laser + Dye, day ≥19
  Proportion of Animals Surviving: 0.70
RT-1 glioma cells; Laser + Dye, day ≥22
  Proportion of Animals Surviving: 0.70
RT-1 glioma cells; Laser + Dye, day ≥26
  Proportion of Animals Surviving: 0.60
RT-1 glioma cells; Laser + Dye, day ≥33
  Proportion of Animals Surviving: 0.50
RT-1 glioma cells; Laser + Dye, day ≥40
  Proportion of Animals Surviving: 0.50
RT-1 glioma cells; Laser + Dye, day ≥47
  Proportion of Animals Surviving: 0.30
RT-1 glioma cells; Laser + Dye, 50 J cm^-2 at 785 nm
  Mean Survival Time: 32.8 days
RT-1 glioma cells; fully treated (laser + dye), from day 47 on
  animals still alive: 30%
[3]; [5]
  nmol Dye 1/g of tissue, Brain: 0.9 nmol Dye 1/g of tissue
  nmol Dye 1/g of tissue, Tumor: 16.0 nmol Dye 1/g of tissue
[3]; femoral artery, 0.25 h, prep (H), tritium counts
  nmol Dye 1/g of tissue, Liver: 5.4 nmol Dye 1/g of tissue
[3]; [6]
  nmol Dye 1/g of tissue, Brain: 46 nmol Dye 1/g of tissue
  nmol Dye 1/g of tissue, Heart: 7.4 nmol Dye 1/g of tissue
  nmol Dye 1/g of tissue, Liver: 9.1 nmol Dye 1/g of tissue
  nmol Dye 1/g of tissue, Tumor: 45 nmol Dye 1/g of tissue
[3]; [7]
  nmol Dye 1/g of tissue, Brain: 18.0 nmol Dye 1/g of tissue
  nmol Dye 1/g of tissue, Liver: 17.0 nmol Dye 1/g of tissue
  nmol Dye 1/g of tissue, Tumor: 32.0 nmol Dye 1/g of tissue
[3]; [8]
  nmol Dye 1/g of tissue, Heart: 1.1 nmol Dye 1/g of tissue
  nmol Dye 1/g of tissue, Liver: 3.3 nmol Dye 1/g of tissue
[3]; [9]
  nmol Dye 1/g of tissue, Brain: 4.7 nmol Dye 1/g of tissue
  nmol Dye 1/g of tissue, Heart: 1.3 nmol Dye 1/g of tissue
  nmol Dye 1/g of tissue, Liver: 13.2 nmol Dye 1/g of tissue
[3]; rat, arterial injection
  passage of the blood-brain barrier: appears to pass the blood-brain barrier
[3]; short time periods following injection
  concentrations of the dye in the tumor mass: reasonably high concentrations

## CC(C)(C)C1=CC(=CC=Cc2cc(C(C)(C)C)[o+]c(C(C)(C)C)c2)C=C(C(C)(C)C)[Te]1.[O-][Cl+3]([O-])([O-])[O-] [Dye 5, 2,6-Di-t-butyl-4-[3-(2,6-di-t-butyl-4H-telluropyran-4-ylidene)-1-propen-1-yl]pyrylium perchlorate]
[4]; 2 h
  nmol Dye 1/g of tissue, Heart: 1.3 nmol Dye 1/g of tissue
  nmol Dye 1/g of tissue, Kidney: ≤ 0.5 nmol Dye 1/g of tissue
  nmol Dye 1/g of tissue, Liver: 4.1 nmol Dye 1/g of tissue
  nmol Dye 1/g of tissue, Tumor: 5.5 nmol Dye 1/g of tissue
[4]; 4 h
  nmol Dye 1/g of tissue, Heart: ≤ 0.5 nmol Dye 1/g of tissue
  nmol Dye 1/g of tissue, Kidney: ≤ 0.5 nmol Dye 1/g of tissue
  nmol Dye 1/g of tissue, Liver: 3.8 nmol Dye 1/g of tissue
  nmol Dye 1/g of tissue, Tumor: 3.3 nmol Dye 1/g of tissue

Source: US5047419A, “Photodynamic therapy of glioma or mammary carcinoma using seleno- or telluropyrylium salts” (Eastman Kodak Company, priority 1988, dated 1991)
